In PubChem BioAssay (NCI):
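All cell lines were grown in 96-well plates and treated with compound for 48 hours. TGI is the concentration that stops growth completely.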

What was measured:
Experiment in all cases: DTP human tumour cell line panel, 48 h
A498 renal = test system: A498 renal
HOP-62 NSCLC = test system: HOP-62 NSCLC
KM12 colon = test system: KM12 colon
LOX IMVI melanoma = test system: LOX IMVI melanoma
MCF7 breast = test system: MCF7 breast
MDA-MB-435 = test system: MDA-MB-435
MOLT-4 leukemia = test system: MOLT-4 leukemia
NCI-H522 lung = test system: NCI-H522 lung
NCI/ADR-RES ovarian = test system: NCI/ADR-RES ovarian
SF-295 CNS = test system: SF-295 CNS
SK-MEL-28 melanoma = test system: SK-MEL-28 melanoma
SNB-19 CNS = test system: SNB-19 CNS
SW-620 colon = test system: SW-620 colon
TK-10 renal = test system: TK-10 renal
U251 CNS = test system: U251 CNS
UACC-257 melanoma = test system: UACC-257 melanoma
UACC-62 melanoma = test system: UACC-62 melanoma
PC-3 prostate = test system: PC-3 prostate
HOP-92 NSCLC = test system: HOP-92 NSCLC

SMILES	TGI (A498 renal)	TGI (HOP-62 NSCLC)	TGI (KM12 colon)	TGI (LOX IMVI melanoma)	TGI (MCF7 breast)	TGI (MDA-MB-435)	TGI (MOLT-4 leukemia)	TGI (NCI-H522 lung)	TGI (NCI/ADR-RES ovarian)	TGI (SF-295 CNS)	TGI (SK-MEL-28 melanoma)	TGI (SNB-19 CNS)	TGI (SW-620 colon)	TGI (TK-10 renal)	TGI (U251 CNS)	TGI (UACC-257 melanoma)	TGI (UACC-62 melanoma)	TGI (PC-3 prostate)	TGI (HOP-92 NSCLC)
O=C(O)c1ccccc1CC1Cc2cc3c(cc2C1)CCC3	> 100 µM	> 100 µM	> 100 µM	> 100 µM	> 100 µM	> 100 µM	> 100 µM	> 100 µM	> 100 µM	> 100 µM	> 100 µM	> 100 µM	> 100 µM	> 100 µM	> 100 µM	> 100 µM	> 100 µM		
COc1ccc(C2ON(c3ccccc3)CC=C2C)cc1 (stereo not given)		> 100 µM	> 100 µM	> 100 µM			> 100 µM	99.5 µM		> 100 µM	> 100 µM	> 100 µM	> 100 µM	> 100 µM	> 100 µM	> 100 µM	> 100 µM		
CSc1nn(C)cc2ncnc1-2	> 100 µM	> 100 µM	> 100 µM		> 100 µM	> 100 µM	> 100 µM		> 100 µM	> 100 µM	> 100 µM	> 100 µM	> 100 µM	> 100 µM	> 100 µM	> 100 µM	> 100 µM	> 100 µM	
COc1cc(CC2c3cc(OC)c(OC)cc3CCN2C)ccc1O (stereo not given)	> 100 µM	> 100 µM	> 100 µM				> 100 µM	> 100 µM		> 100 µM	> 100 µM	> 100 µM	> 100 µM	> 100 µM	> 100 µM	> 100 µM			
CC(=O)Nc1ccc(C(=O)NN2C(=O)CSC2c2ccc(O)cc2)cc1 (stereo not given)	> 100 µM	> 100 µM	> 100 µM		> 100 µM	> 100 µM	> 100 µM		> 100 µM	> 100 µM	> 100 µM	> 100 µM	> 100 µM	> 100 µM	> 100 µM	> 100 µM	> 100 µM		> 100 µM
CN/C=C(\C(=O)c1ccc(OC)c(OC)c1)c1ccc(OC)cc1	28.2 µM	94 µM	29.5 µM	29.8 µM			62 µM	36 µM		> 100 µM	39.7 µM	> 100 µM	37.5 µM	37.9 µM	21.3 µM	39.5 µM	49.6 µM		
CCC1(CC)C(=O)N(C(=O)c2ccccc2)N(C(=O)c2ccc(Cl)cc2)C1=O		> 75 µM	> 75 µM	> 75 µM	> 75 µM	> 75 µM	47.7 µM	> 75 µM	> 75 µM	> 75 µM	> 75 µM	> 75 µM	> 75 µM	> 75 µM	> 75 µM	> 75 µM	> 75 µM	> 75 µM	
